This is an account of results in patent publication US6469141B1, “D1-like dopamine receptor activity modifying protein” (Medical College of Georgia Research Institute Inc., priority 1998, dated 2002).

Experiment [1] has as its system endogenous P2Y purinergic receptors. The experiment in a line: Fura-2 Ca++ imaging, P2Y receptor-stimulated Ca++i release in D1 HEK293 cells. It is filed as cell-based, human. How it is done:
Drugs were prepared in HBS and manually applied.
Changes in Ca^++i levels were measured using ratiofluorometric imaging following bath application of ligand. Application of DA or 10:M […] produced no detectable response in untransfected D1 HEK293 cells, or cells expressing either EGFP or EGFP-Calcyon. In vivo, DA is considered primarily to be a neuromodulator. Therefore, to test whether Calcyon plays a role in the D1 receptor's ability to modulate other stimuli, we applied agonists of endogenous GPCRs prior to stimulating D1 receptors. […].

For another experiment, the system named is protein kinase C (PKC). The experiment in a line: 32P-orthophosphate in vivo labeling and GFP mab immunoprecipitation of EGFP-Calcyon. Format: cell-based, human. The conditions noted are these: 100 nM PMA, 0.5 h. How it is done: Approximately 40 h after transfection, pEGFP or pEGFP-Calcyon transfected D1 HEK293 cells were washed and placed in HBS (phosphate-free media) for 1.5 h prior to addition of [^32P] orthophosphate (135 μCi/ml). 2 h later, cells were treated with 100 nM PMA (Phorbol 12-Myristate 13-Acetate) in HBS for 0.5 h at 37°. Cells were then washed once in cold PBS and solubilized in mild lysis solution (Cytosignal, Irvine, Calif.) containing protease inhibitor cocktail (Boehringer Manheim) and phosphatase inhibitors, 50 μM NaF and 5 μM EGTA. Lysates were centrifuged for 5 min at 14,000 rpm and the supernatant was incubated at RT. for 1 h with mouse anti-GFP mab (Clontech, Palo Alto, Calif.) (diluted 1:100), followed by 0.02 volume of protein A/G agarose slurry for 30 min. The resin was washed twice with mild lysis solution, and adsorbed proteins eluted in SDS PAGE loading buffer (Laemmli, U.K., Nature 227:680-5 (1970)). Samples were analyzed by SDS-PAGE, using a 15% gel (Bio-Rad). The gel was dried and visualized using a Phosphorimager SF (Molecular Dynamics). […]
The Calcyon sequence contains two consensus protein kinase C (PKC) phosphorylation sites within its predicted cytoplasmic domain. […] GFP mab immunoprecipated a ^32P-labeled protein from pEGFP-Calcyon transfected cells with size equal to that detected by Calcyon antibodies. […]

Experiment [2] addresses T1, hD1 receptors (Homo sapiens, UniProt P21728).
T1 construct: pLXSN (Clontech) plasmid containing full-length human D1 (Zhou et al., Nature 347:76-80 (1990)); expressed in transfected cells
The experiment in a line: cAMP assay in transfected D1 HEK293 cells. It is filed as cell-based. Here is the method:
Following centrifugation to pellet proteins, cAMP levels in supernatant were determined by Direct cAMP Enzyme Immunoassay Kit (Assay Designs, Inc.) according to the supplier's protocol. […] Results (pmol cAMP/mg protein) are reported as average of three independent trans fection experiments.
It was determined whether Calcyon influenced D1 receptor coupling to the cAMP second messenger system in D1 HEK293 cells transfcctcd with expression plasmids encoding either enhanced green fluorescent protein (EGFP), or Calcyon tagged at its N-terminus by EGFP.
(§1) pEGFP-Calcyon was created by inserting a 0.9 kb Eco RI-Xho I fragment encoding full-length Calcyon into pEGFP-C3 (Clontech). pEGFP-C3 and pEGFP-Calcyon plasmid DNAs were transiently transfected into HEK293 and D1 HEK293 cell lines using Effectene™ (Qiagen) according to manufacturer's recommendations. 2.5×10^5 cells were seeded in 6-well plates, and transfected with 0.4:g plasmid DNA/well for Ca^++ imaging, cAMP, and immunoprecipitation assays.
A general note: cAMP levels reflect the balance of adenylyl cyclase and phosphodiesterase activity.

For experiment [3], the target named is T1, hD1 receptors. The experiment in a line: Fura-2 Ca++ imaging of D1 receptor-stimulated Ca++i release in D1 HEK293 cells. Format: cell-based. The conditions noted are these: for effect of PKC inhibitor on SKF81297-induced Ca++ mobilization: EGFP-Calcyon expressing D1 HEK293 cells, HCl. Here is the method:
For Ca^++ imaging, cells were rinsed with HBS (150 mM NaCl, 10 mM NaHEPES, 10 mM glucose, 2.5 mM KCI, 4 mM CaCl2 and 2 mM MgCl2, pH 7.4) and then loaded with 5 μM Fura-2 AM (Molecular Probes) in HBS at RT. After 20 min, cells were washed three times with HBS. Assays were performed at RT in 1.5 ml of HBS. Drugs were prepared in HBS and manually applied. […] Images were collected with a CCD camera connected to a Silicon Graphics workstation, and analyzed with Inovision-Ratiotool 4.3.5. Transfected cells were identified by illumination at 490 nm, and selected as areas for analysis. […] Fluorescence emission at 510 nm was monitored for each excitation wavelength via the CCD camera at 10 s intervals. Average pixel intensities within 6-8 selected areas (each area corresponded to single transfected cell) for both wavelengths at each time point were digitized and stored on the computer.
Changes in Ca^++i levels were measured using ratiofluorometric imaging following bath application of ligand. […] In vivo, DA is considered primarily to be a neuromodulator. Therefore, to test whether Calcyon plays a role in the D1 receptor's ability to modulate other stimuli, we applied agonists of endogenous GPCRs prior to stimulating D1 receptors.
as §1

For experiment [4], the target named is T2, GSTD1 (C-terminal 81 residues of hD1 receptor) (Homo sapiens, UniProt P21728).
T2 construct: C-terminal 81 amino acids of the hD1 receptor (residues 365-446); made in house; host or cells: S-Calcyon: BL21(DE3) E. coli
T2 sequence (P21728 365-446): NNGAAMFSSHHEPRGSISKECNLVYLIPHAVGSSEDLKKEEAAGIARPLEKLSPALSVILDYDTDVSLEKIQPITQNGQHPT
T2 sequence (Q9NYX4 93-217 partner): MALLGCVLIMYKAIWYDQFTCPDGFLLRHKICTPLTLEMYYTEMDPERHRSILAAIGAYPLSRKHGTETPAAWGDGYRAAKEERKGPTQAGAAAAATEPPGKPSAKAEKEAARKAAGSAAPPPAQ
The experiment in a line: S-agarose pull-down assay with GSTD1 fusion protein. Format: binding. The conditions noted are these: immunoblot with D1 receptor antibodies. An excerpt:
For pull-down assays, a 550 bp Nco I-Bgl II fragment from pACT-Calcyon was subcloned into pET30a (Novagen, Madison, Wis.) to produce the S-Calcyon fusion protein containing residues 93-217 of the predicted Calcyon protein as well as an N-terminal tag composed of the 15 residue S peptide of ribonuclease S (Richards, F. M., et al., The Enzymes. ed.: Boyer, P. D., Academic Press, N.Y., pp. 647-806 (1971)). The S-β-galactosidase fusion protein was composed of bacterial β-galactosidase protein tagged at its N-terminus with the S peptide. Fusion proteins were induced in BL2I(DE3) E. coli with IPTG, and coupled to S-agarose resin (Novagen, Madison, Wis.) by incubating soluble fractions of bacterial lysates with resin for 1 h at RT Following incubation, unbound proteins were eliminated by washing the resin three times in 50 volumes of 25 mM HEPES (pH 7.4), 50 mM NaCl. Interaction assays were performed with GSTD1 purified as described (Bergson, C., et al., J. Neurosci. 15:7821-36 (1995)) or solubilized lysates of D1 HEK293 cells in 25 mM HEPES (pH 7.4), 50 mM NaCl, 10% glycerol, 1% bovine serum albumin containing 0.5% NP-40. Peptidel 421-435 ([…]) (SEQ ID No. 3) and Peptide2 ([…]) (SEQ ID No. 4) were synthesized using an Applied Biosystems 430A Peptide Synthesizer using the FastMoc procedures and reagents supplied by Perkin-Elmer, Applied Biosystems division. […]
For orientation: Immunoblotting shows a protein as a band on a membrane.

For the next experiment, the target named is D1 receptor (Homo sapiens, UniProt P21728). The experiment in a line: D1 receptor response to dopamine in presence of P24. The conditions noted are these: effect of P24.
Sequence of D1 receptor (P21728 whole entry): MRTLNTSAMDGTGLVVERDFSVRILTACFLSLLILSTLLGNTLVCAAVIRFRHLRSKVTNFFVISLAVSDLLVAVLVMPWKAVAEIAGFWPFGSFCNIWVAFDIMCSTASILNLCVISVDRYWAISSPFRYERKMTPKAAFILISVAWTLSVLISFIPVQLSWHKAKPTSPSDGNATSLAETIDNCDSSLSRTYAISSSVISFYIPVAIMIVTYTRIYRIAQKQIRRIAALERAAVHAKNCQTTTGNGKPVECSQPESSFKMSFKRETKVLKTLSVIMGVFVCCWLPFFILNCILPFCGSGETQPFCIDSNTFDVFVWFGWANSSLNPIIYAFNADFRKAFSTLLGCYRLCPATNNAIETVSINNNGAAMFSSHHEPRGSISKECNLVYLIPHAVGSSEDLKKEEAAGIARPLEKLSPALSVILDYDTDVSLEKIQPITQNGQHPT
For another experiment, the target named is T3, D1 DA receptors (Homo sapiens, UniProt P21728).
T3 construct: pLXSN (Clontech) plasmid containing full-length human D1 (Zhou et al., Nature 347:76-80 (1990)); expressed in transfected cells; host or cells: D1-HEK293 cells, transiently transfected with pEGFP-P24
T3 sequence (P21728 whole entry): as above
The experiment in a line: co-immunoprecipitation with GFP mab from transfected D1-HEK293 cells. Format: binding. From the text:
A series of experiments were then undertaken to functionally characterize the interaction between P24 and D1 receptor proteins. D1-HEK293 cells, a HEK293 cell line that expresses hD1 receptors, and pEGFP-P24 expression plasmid were used for these studies. pEGFP-P24 encodes P24 protein tagged at its N-terminus by enhanced green fluorescent protein (EGFP). The N-terminal EGFP tag allowed testing to determine whether P24 directly associates with D1 DA receptors when coexpressed in mammalian cells in a “pull-down” assay. D1 receptors co-immunoprecipitated with EGFP-P24 fusion protein transiently expressed in transfected D1-HEK293 cells, and were “pulled down” by GFP mab.

T1 sequence (P21728 whole entry): as above

In the case of `Nc1ncnc2c1ncn2[C@@H]1O[C@H](COP(=O)(O)OP(=O)(O)OP(=O)(O)O)[C@@H](O)[C@H]1O` [ATP], the “Ca++i response” value in experiment [1] (D1 HEK293 cells) was “produced a rise in Ca^++i”. Further, the “duration of P2Y receptor Ca++i response” value in experiment [1] (EGFP expressing cells) is 300 to 400 s; in experiment [1] (EGFP-Calcyon expressing cells, following application of BisI), 300 to 400 s.

As to `CCCCCCCCCCCCCC(=O)O[C@@H]1[C@@H](C)[C@@]2(O)[C@@H](C=C(CO)C[C@]3(O)C(=O)C(C)=C[C@@H]23)[C@@H]2C(C)(C)[C@]12OC(C)=O` [PMA, phorbol 12-myristate 13-acetate], the “32P label incorporated into immunoprecipitated EGFP-Calcyon, treated vs untreated cells” value in the experiment on protein kinase C (PKC) is listed as “approximately five times more label incorporated”.

`CN(C)CCCn1cc(C2=C(c3c[nH]c4ccccc34)C(=O)NC2=O)c2ccccc21.Cl` [bisindolylmaleimide I HCl]: the “cAMP levels stimulated by ATP and SKF81297, BisI-treated compared to untreated cells” value on hD1 receptors [2] is listed as “similar”. In addition, the “effect of PKC inhibitor on SKF81297-induced Ca++ mobilization” value at hD1 receptors [3] is “considerably attenuated”; at hD1 receptors [3] (listed as bisindolylmalemide), “inhibits Calcyon-enabled D1 stimulated Cai^++ release”. Besides, the “effect of PKC inhibitor on D1 receptor-stimulated Ca++i release” value at hD1 receptors [3] (EGFP-Calcyon expressing cells treated with carbachol) was “reduced D1 receptor-stimulated Ca^++i release”.

Turning to “SVILDYDTDVSLEKI (listed as Homo sapiens) [Pep421-435]”, the “block of interaction between GSTD1 and S-Calcyon by peptide” value in experiment [4] is “prevented detection of the immunoreactive GSTD1 band”.

B1: Calcyon: 217 residue single transmembrane protein encoded by K 37 cDNA (SEQ ID No. 1) that interacts with the hD1 DA receptor (protein)
chain: MVKLGCSFSGKPGKDPGDQDGAAMDSVPLISPLDISQLQPPLPDQVVIKTQTEYQLSSPDQQNFPDLEGQRLNCSHPEEGRRLPTARMIAFAMALLGCVLIMYKAIWYDQFTCPDGFLLRHKICTPLTLEMYYTEMDPERHRSILAAIGAYPLSRKHGTETPAAWGDGYRAAKEERKGPTQAGAAAAATEPPGKPSAKAEKEAARKAAGSAAPPPAQ
modifications: D1-Like dopamine receptor activity modifying protein
On to B1, for which, in the experiment with D1 receptor, the “threshold of D1 receptor response to dopamine” value is on record as “lowers the threshold of D1 receptor response to dopamine (DA) by an order of magnitude”. The “effect of Calcyon expression on D1 receptor-stimulated cAMP” value with hD1 receptors [2] (DA-stimulated cAMP, EGFP vs EGFP-Calcyon cells) is “does not alter D1 receptor activation of cAMP-dependent signaling pathways”. Also, in the experiment with hD1 receptors [3] (EGFP-Calcyon vs EGFP expressing cells, D1 agonist after ATP), the “effect of Calcyon expression on D1 receptor-stimulated Ca++i mobilization” value is “enhance the ability of D1 receptors to mobilize Ca^++i”.

B2: EGFP-P24: P24 protein tagged at its N-terminus by enhanced green fluorescent protein (protein)
chain: MVKLGCSFSGKPGKDPGDQDGAAMDSVPLISPLDISQLQPPLPDQVVIKTQTEYQLSSPDQQNFPDLEGQRLNCSHPEEGRRLPTARMIAFAMALLGCVLIMYKAIWYDQFTCPDGFLLRHKICTPLTLEMYYTEMDPERHRSILAAIGAYPLSRKHGTETPAAWGDGYRAAKEERKGPTQAGAAAAATEPPGKPSAKAEKEAARKAAGSAAPPPAQ
modifications: left off: large carriers
For B2, the “co-immunoprecipitation of D1 receptors” value with D1 DA receptors is listed as “co-immunoprecipitated”.
